Results reported in patent US6989384B2, “Antipicornaviral compounds and compositions, their pharmaceutical uses, and materials for their synthesis” (Agouron Pharmaceuticals, Inc., priority 2000, dated 2006).
Where two headings read alike, the source gives them in different places.

How the values were obtained:
[1] = Cytotoxicity in mock-infected H1-HeLa cells (XTT); assay type: cell-based; details: human, two days, read-out: Toxicity CC50
Experimental: (§1) In this cell protection assay, the ability of compounds to protect cells against HRV infection was measured by the XTT dye reduction method, which is described in Weislow et al., J. Natl. Cancer Inst. 1989, vol. 81, 577–586.
(§2) H1-HeLa cells were infected with HRV-14 at a multiplicity of infection (m.o.i.) of 0.13 (virus particles/cell) or mock-infected with medium only. Infected or mock-infected cells were resuspended at 8×10^5 cells per mL, and incubated with appropriate concentrations of the compounds to be tested. Two days later, XTT/PMS was added to test plates and the amount of formazan produced was quantified spectrophotometrically at 450/650 nm. The EC50 value was calculated as the concentration of compound that increased the percentage of formazan production in compound-treated, virus-infected cells to 50% of that produced by compound-free, mock-infected cells. The 50% cytotoxic dose (CC50) was calculated as the concentration of compound that decreased the percentage of formazan produced in compound-treated, mock-infected cells to 50% of that produced by compound-free, mock-infected cells.
(§3) All strains of human rhinovirus (HRV) for use in this assay were purchased from American Type Culture Collection (ATCC), except for HRV serotype-14 (produced from the infectious cDNA clone constructed by Dr. Robert Rueckert, Institute for Molecular Virology, University of Wisconsin, Madison, Wis.). HRV stocks were propagated and viral assays were performed in H1-HeLa cells (ATCC). Cells were grown in minimal essential medium with 10% fetal bovine serum, available from Life Technologies (Gaithersburg, Md.).

[2] = target: T1, rhinovirus 3C protease (HRV-2) (Human rhinovirus 2, UniProt P04936); experiment: Inhibition of rhinovirus 3C protease activity (FRET assay), HRV-2; assay type: biochemical; details: read-out: Protease Inhibition kobs/I
T1 construct: Recombinant rhinovirus 3C proteases; made in house
Experimental: (§4) Stock solutions (50 mM, in DMSO) of various compounds were prepared; dilutions were in the same solvent. Recombinant rhinovirus 3C proteases (see Birch et al., “Purification of recombinant human rhinovirus 14 3C protease expressed in Escherichia coli,” Protein Expr. Pur. 1995, 6(5), 609–618) from serotypes 14, 16, and 2 were prepared by the following standard chromatographic procedures: (1) ion exchange using Q Sepharose Fast Flow from Pharmacia; (2) affinity chromatography using Affi-Gel Blue from Biorad; and (3) sizing using Sephadex G-100 from Pharmacia. Each assay sample contained 2% DMSO, 50 mM tris pH 7.6, 1 mM EDTA, a test compound at the indicated concentration, approximately 1 μM substrate, and 50–100 nM protease. The kobs/I values were obtained from reactions initiated by addition of enzyme rather than substrate. RVP activity was measured in the fluorescence resonance energy transfer assay. The substrate was (N-terminal) DABCYL-(Gly-Arg-Ala-Val-Phe-Gln-Gly-Pro-Val-Gly)-EDANS. In the uncleaved peptide, the EDANS fluorescence was quenched by the proximal DABCYL group. When the peptide was cleaved, the quenching was relieved, and activity was measured as an increase in fluorescence signal. In the Table, unless otherwise indicated, all data are for rhinovirus 3C protease from HRV serotype-14 (produced from the infectious cDNA clone constructed by Dr. Robert Rueckert, Institute for Molecular Virology, University of Wisconsin, Madison, Wis.). The data in the column designated kobs/[I] were measured from progress curves in enzyme start experiments.

HRV-1A = experiment: Antirhinoviral H1-HeLa cell culture assay (cell protection, XTT), HRV-1A; assay type: cell-based, human rhinovirus; details: Rhinovirus A, HRV1A, 48 h, H1-HeLa cells, two days
Experimental: as §1, §2, §3
(§5) The compounds were tested against control compounds WIN 51711, WIN 52084, and WIN 54954 (obtained from Sterling-Winthrop Pharmaceuticals), Pirodavir (obtained from Janssen Pharmaceuticals), and Pleconaril (prepared according to the method described in Diana et al., J. Med. Chem 1995, vol. 38, 1355). Antiviral data obtained for the test compounds are shown in the Table, where all data are for HRV serotype-14 unless otherwise noted in parentheses.

HRV-14 = experiment: Antirhinoviral H1-HeLa cell culture assay (cell protection, XTT), HRV-14; assay type: cell-based, human rhinovirus; details: read-out: Cell Protection EC50
Experimental: as §1, §2, §3, §5

HRV-10 = experiment: Antirhinoviral H1-HeLa cell culture assay (cell protection, XTT), HRV-10; assay type: cell-based; details: Human rhinovirus sp., HRV10, 48 h, HRV-10, H1-HeLa cells, two days
Experimental: as §1, §2, §3, §5

[3] = target: T2, rhinovirus 3C protease from HRV serotype-14 (Human rhinovirus 14, UniProt P03303); experiment: Inhibition of rhinovirus 3C protease activity (FRET assay), HRV-14; assay type: biochemical; details: read-out: Protease Inhibition kobs/I
T2 construct: Recombinant rhinovirus 3C proteases; made in house
Experimental: as §4

H1-HeLa cells = experiment: Cytotoxicity in mock-infected H1-HeLa cells (XTT); assay type: cell-based; details: two days, read-out: Toxicity CC50
Experimental: as §1, §2, §3

HRV-2 = experiment: Antirhinoviral H1-HeLa cell culture assay (cell protection, XTT), HRV-2; assay type: cell-based, human rhinovirus; details: Rhinovirus A, HRV2, 48 h, HRV-2, H1-HeLa cells, two days
Experimental: as §1, §2, §3, §5

[4] = Rhinovirus B, HRV14, H1-HeLa, 48 h
[5] = Rhinovirus B, HRV14, 48 h, HRV-14, H1-HeLa cells, XTT, two days
[6] = HRV-14 3C protease, progress curves, enzyme start
[7] = HRV-14, H1-HeLa cells, XTT, two days

T1 sequence (P04936 1508-1690): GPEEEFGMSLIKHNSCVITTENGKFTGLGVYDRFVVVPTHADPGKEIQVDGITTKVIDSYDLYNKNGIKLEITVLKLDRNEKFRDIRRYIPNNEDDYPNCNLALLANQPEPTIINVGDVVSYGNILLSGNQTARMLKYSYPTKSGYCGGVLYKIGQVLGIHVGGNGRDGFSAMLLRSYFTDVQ
T2 sequence (P03303 1538-1719): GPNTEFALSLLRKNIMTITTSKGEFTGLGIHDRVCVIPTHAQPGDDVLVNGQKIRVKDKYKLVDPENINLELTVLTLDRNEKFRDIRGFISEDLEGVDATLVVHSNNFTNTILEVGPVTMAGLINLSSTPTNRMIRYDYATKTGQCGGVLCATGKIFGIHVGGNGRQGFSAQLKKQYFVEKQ

| kinact/KI [3, 6] [M⁻¹ s⁻¹] | SMILES | CC50 at 2 days [1] [µM] | EC50 (HRV-14; [4]) [µM] | kinact/KI [3] [M⁻¹ s⁻¹] | also measured |
| --- | --- | --- | --- | --- | --- |
| – | CCOC(=O)/C=C/[C@H](C[C@@H]1CCNC1=O)NC(=O)C1=Cc2cc(Br)ccc2OC1 [Compound 52, 4S-[(6-Bromo-2H-chromene-3-carbonyl)-amino]-5-(2-oxo-pyrrolidin-3S-yl)-pent-2-enoic acid ethyl ester] | 65 | 0.175 | 25000 | kinact/KI [2]: 372 M⁻¹ s⁻¹; EC50 (HRV-1A): 5.07 µM; EC50 (HRV-10): 0.546 µM |
| 95 | CCOC(=O)/C=C/[C@H](CCC(N)=O)NC(=O)c1cc2ccccc2s1 [Compound 26, 4S-[(benzo[b]thiophene-2-carbonyl)-amino]-6-carbamoyl-hex-2-enoic acid ethyl ester] | > 100 | – | – | EC50 (HRV-1A): 59 µM; EC50 (HRV-14; [5]): 1.5 µM; EC50 (HRV-10): 12.4 µM |
| – | Cc1cc(CCCCCCCOc2ccc(C3=N[C@@H](C)CO3)cc2)on1 [WIN 52084, reference compound] | – | – | – | CC50 (H1-HeLa cells): > 10 µM; EC50 (HRV-14; [7]): 0.07 µM |
| – | CCOC(=O)/C=C/[C@H](C[C@@H]1CCNC1=O)NC(=O)c1ccc2ccc(Br)cc2c1 [Compound 53, 4S-[(7-Bromo-naphthalene-2-carbonyl)-amino]-5-(2-oxo-pyrrolidin-3S-yl)-pent-2-enoic acid ethyl ester] | 56.2 | 0.184 | 31400 | kinact/KI [2]: 385 M⁻¹ s⁻¹; EC50 (HRV-2): 0.422 µM; EC50 (HRV-1A): 4.18 µM; EC50 (HRV-10): 0.546 µM |
| – | CCOC(=O)/C=C/[C@H](C[C@@H]1CCNC1=O)NC(=O)/C=C/c1cc2c(cc1Br)OCO2 [Compound 49, 4S-[3-(6-Bromo-benzo[1,3]dioxol-5-yl)-acryloylamino]-5-(2-oxo-pyrrolidin-3S-yl)-pent-2-enoic acid ethyl ester] | > 100 | 0.49 | 14400 | EC50 (HRV-1A): 2.51 µM; EC50 (HRV-10): 0.316 µM |
| 150 | CCOC(=O)/C=C/[C@H](CCC(N)=O)NC(=O)c1ccc2ccccc2c1 [Compound 25, 6-carbamoyl-4S-[(naphthalene-2-carbonyl)-amino]-hex-2-enoic acid ethyl ester] | > 100 | – | – | EC50 (HRV-1A): 22 µM; EC50 (HRV-14; [5]): 0.6 µM; EC50 (HRV-10): 35 µM |
| – | CCOC(=O)/C=C/[C@H](C[C@@H]1CCNC1=O)NC(=O)c1ccc2ccccc2c1 [Compound 1, 4S-[(naphthalene-2-carbonyl)-amino]-5-(2-oxo-pyrrolidin-3S-yl)-pent-2-enoic acid ethyl ester] | > 100 | 0.15 | 1090 | kinact/KI [2]: 110 M⁻¹ s⁻¹; EC50 (HRV-2): 1.35 µM |
| – | Cc1cc(CCCCCOc2c(Cl)cc(C3=NCCO3)cc2Cl)on1 [WIN 54954, reference compound] | – | – | – | CC50 (H1-HeLa cells): > 63 µM; EC50 (HRV-14; [7]): 2.13 µM |
| 220 | CCOC(=O)/C=C/[C@H](C[C@@H]1CCNC1=O)NC(=O)c1ccc2ccc(O)cc2c1 [Compound 54, 4S-[(7-Hydroxy-naphthalene-2-carbonyl)-amino]-5-(2-oxo-pyrrolidin-3S-yl)-pent-2-enoic acid ethyl ester] | – | – | – | kinact/KI ([2]; HRV-2 3C protease, progress curves, enzyme start): 35 M⁻¹ s⁻¹ |
| – | CCOC(=O)/C=C/[C@H](C[C@@H]1CCNC1=O)NC(=O)COc1ccc(Cl)c(Cl)c1 [Compound 62, 4S-[2-(3,4-dichloro-phenoxy)-acetylamino]-5-(2-oxo-pyrrolidin-3S-yl)-pent-2-enoic acid ethyl ester] | > 10 | 6.1 | 134 | – |
| – | Cc1cc(CCCCCCCOc2ccc(C3=NCCO3)cc2)on1 [WIN 51711, reference compound] | – | – | – | CC50 (H1-HeLa cells): > 60 µM; EC50 (HRV-14; [7]): 0.78 µM |
| – | CCOC(=O)/C=C/[C@H](C[C@@H]1CCNC1=O)NC(=O)c1cc2cc(Br)ccc2n1C [Compound 21, 4S-[(5-bromo-1-methyl-indole-2-carbonyl)-amino]-5-(2-oxo-pyrrolidin-3S-yl)-pent-2-enoic acid ethyl ester] | 17.8 | 3.07 | 1320 | – |
| – | CCOC(=O)/C=C/[C@H](C[C@@H]1CCNC1=O)NC(=O)Nc1cc(OC)cc(OC)c1 [Compound 57, 4S-[3-(3,5-dimethoxy-phenyl)ureido]-5-(2-oxo-pyrrolidin-3S-yl)-pent-2-enoic acid ethyl ester] | > 10 | > 10 | 388 | – |
| – | CCOC(=O)/C=C/[C@H](C[C@@H]1CCNC1=O)NC(=O)/C=C/c1ccc(C)cc1 [Compound 12, 5-(2-oxo-pyrrolidin-3S-yl)-4S-(3-p-tolyl-acryloylamino)-pent-2-enoic acid ethyl ester] | > 10 | 2.77 | 990 | – |
| 110 | CCOC(=O)/C=C/[C@H](CCC(N)=O)NC(=O)c1ccc2ccccc2n1 [Compound 31, 6-carbamoyl-4S-[(quinoline-2-carbonyl)-amino]-hex-2-enoic acid ethyl ester] | > 100 | – | – | EC50 (HRV-14; [5]): 7.1 µM |
| – | CCOC(=O)/C=C/[C@H](C[C@@H]1CCNC1=O)NC(=O)c1cc2cc(CC)ccc2[nH]1 [Compound 8, 4S-[(5-ethyl-1H-indole-2-carbonyl)-amino]-5-(2-oxo-pyrrolidin-3S-yl)-pent-2-enoic acid ethyl ester] | > 10 | 2.67 | 980 | – |
| 35 | CCOC(=O)/C=C/[C@H](CCC(N)=O)NC(=O)c1ccc(Cl)c(Cl)c1 [Compound 35, 6-carbamoyl-4S-(3,4-dichloro-benzoylamino)-hex-2-enoic acid ethyl ester] | 100 | – | – | EC50 (HRV-14; [5]): > 100 µM |
| 83 | CCOC(=O)/C=C/[C@H](CCC(N)=O)NC(=O)c1nn(-c2ccccc2)nc1C [Compound 32, 6-carbamoyl-4S-[(5-methyl-2-phenyl-2H-[1,2,3]triazole-4-carbonyl)-amino]-hex-2-enoic acid ethyl ester] | > 100 | – | – | EC50 (HRV-14; [5]): 1.8 µM |
| – | CCOC(=O)/C=C/[C@H](C[C@@H]1CCNC1=O)NC(=O)c1cc(-c2ccccc2)oc1C [Compound 45, 4S-[(2-Methyl-5-phenyl-furan-3-carbonyl)-amino]-5-(2-oxo-pyrrolidin-3S-yl)-pent-2-enoic acid ethyl ester] | > 100 | 1.94 | 4740 | – |
